Measured values: article PMC11545984, “1,3-Dipolar Cycloaddition of Nitrile Oxides and Nitrilimines to (−)-β-Caryophyllene: Stereoselective Synthesis of Polycyclic Derivatives and Their Biological Testing” (International Journal of Molecular Sciences, 2024)
Read-outs that look alike come from different tables or passages of the source.

Key:
[1] = test system: influenza virus A/Puerto Rico/8/34 (H1N1); assay: Antiviral (cytoprotective) activity in MDCK cells, MTT; format: cell-based
MDCK cells = assay: Cytotoxicity in MDCK cells (MTT, CC50); conditions: uninfected MDCK cells, 48 h
[2] = Initial cytotoxicity testing (MTT test), VA-13; format: cell-based, human; conditions: human healthy cells, MTT, 72 h, two concentrations 50–100 µM
Protocol: (§1) Colon cancer (HCT116, HT29), breast cancer (MCF7, SKBR3), melanoma (SK-MEL28), lung cancer (A549), prostate cancer (DU145), human normal cells (VA-13 and HEK293), and murine mammary cell lines (EMT6) were purchased from ATCC (Manassas, VA, USA). Cells were routinely grown in RPMI 1640 culture medium, supplemented with 10% fetal bovine serum, glutamine, and 100 U/mL penicillin. HCT116, HT29, MCF7, SKBR3, SK-MEL28, A549, DU145, VA-13, HEK293, and EMT6 cells were grown in flasks in RPMI 1640 fresh culture medium with supplements at 37 °C and 5% CO2. Cells were grown as monolayer cultures, and the cells in the exponential growth phase were trypsinized and suspended in the supplemented RPMI 1640 medium.
(§2) To evaluate the cytotoxicity of the compounds, we placed cells in (20–30) × 10^3 cells/mL concentrations in 96-well culture plates for 24 h. Cells were counted after treatment with Trypan blue solution (0.4%). They were then exposed to two different concentrations of compounds 16–30 (50–100 µM) dilutions in pre-incubated cells at 37 °C for 72 h. In control wells with untreated cells, only (DMSO + PBS) was added. Cell viability was measured by the standard MTT test. The stock solutions of each compound were prepared in DMSO following by preparation of serial dilutions in PBS.
(§3) The absorbance was measured at 540 nm using a Multiskan™ FC microplate photometer and the Skanlt software 6.1 RE for microplate reader, both from Thermo Scientific (Waltham, MA, USA). Experiments were carried out in triplicate; to perform the statistical analysis, more concentrations should be evaluated.

[3] = Initial cytotoxicity testing (MTT test), HEK293; format: cell-based, human; conditions: human healthy cells, MTT, 72 h, two concentrations 50–100 µM
Protocol: as §1, §2, §3

in vitro = conditions: dog
A549 = assay: Initial cytotoxicity testing (MTT test), A549; format: cell-based, human; conditions: Homo sapiens, A549, 72 h, read-out: cytotoxicity A549
Protocol: as §1, §2, §3

DU145 = assay: Initial cytotoxicity testing (MTT test), DU145; format: cell-based, human; conditions: Homo sapiens, DU-145, 72 h, read-out: cytotoxicity DU145
Protocol: as §1, §2, §3

[4] = test system: DU145, A549, VA-13, HEK293, EMT6; assay: Initial cytotoxicity testing (MTT test), all cell lines together; format: cell-based; conditions: after 72 h, read-out: IC50 on all cells
Protocol: as §1, §2, §3

VA-13 = assay: Initial cytotoxicity testing (MTT test), VA-13; format: cell-based, human; conditions: Homo sapiens, VA-13; normal cells, initial testing
Protocol: as §1, §2, §3

HEK293 = assay: Initial cytotoxicity testing (MTT test), HEK293; format: cell-based, human; conditions: Homo sapiens, HEK293; normal cells, initial testing
Protocol: as §1, §2, §3

[5] = H1N1, infected MDCK cells, m.o.i. 0.01, 48 h, 50% cell protection, read-out: IC50

## NC12CC3CC(CC(C3)C1)C2 [Amantadine, reference compound]
[1]; [5]
  IC50: 64 ± 5 µM
MDCK cells
  CC50: 284 ± 21 µM

## C/C1=C\CC[C@@]2(CC(c3ccc(Cl)cc3)=NO2)[C@H]2CC(C)(C)[C@@H]2CC1 [Compound 16a, (1S,2R,9R,E)-3′-(4-Chlorophenyl)-6,10,10-trimethyl-4′H-spiro[bicyclo [7.2.0]undecane-2,5′-isoxazol]-5-ene]
[2]
  IC50 at 72 h: > 50 µM
[1]; [5]
  IC50: 9.8 ± 1.3 µM
[3]
  IC50 at 72 h: > 50 µM
In vitro
  CC50 at 48 h: 125 ± 6.5 µM
A549
  IC50: > 50 µM
DU145
  IC50: > 50 µM

## C=C1CC[C@@H]2C(c3ccc(Cl)cc3)=NO[C@@]2(C)CC[C@@H]2[C@@H]1CC2(C)C [Compound 16b, (3aR,6aS,8aR,10aS)-3-(4-chlorophenyl)-8,8,10a-trimethyl-6-methylene-3a,5,6,6a,7,8,8a,9,10,10a-decahydro-4H-cyclobuta [5,6]cyclonona [1,2-d]isoxazole]
[2]
  IC50 at 72 h: > 50 µM
[1]; [5]
  IC50: 16.8 ± 2.2 µM
[3]
  IC50 at 72 h: > 50 µM
In vitro
  CC50 at 48 h: 20.2 ± 1.9 µM
A549
  IC50: > 50 µM
DU145
  IC50: > 50 µM

## C=C1CC[C@@H]2C(c3ccc(OC)cc3)=NO[C@@]2(C)CC[C@@H]2[C@@H]1CC2(C)C [Compound 17b, (3aR,6aS,8aR,10aS)-3-(4-methoxyphenyl)-8,8,10a-trimethyl-6-methylene-3a,5,6,6a,7,8,8a,9,10,10a-decahydro-4H-cyclobuta [5,6]cyclonona [1,2-d]isoxazole]
[2]
  IC50 at 72 h: < 50 µM
[1]; [5]
  IC50: > 12.8 µM
[4]
  IC50: < 50 µM
[3]
  IC50 at 72 h: < 50 µM
In vitro
  CC50 at 48 h: 27 ± 2.4 µM
A549
  IC50: < 50 µM
DU145
  IC50: < 50 µM

## CC1=CCCC2(CC(c3cc(Br)ccc3O)=NO2)C2CC(C)(C)C2CC1 [Compound 18a, 4-Bromo-2-((1S,2R,9R,E)-6,10,10-trimethyl-4′H-spiro[bicyclo [7.2.0]undecane-2,5′-isoxazol]-5-en-3′-yl)phenol]
[2]
  IC50 at 72 h: > 50 µM
[1]; [5]
  IC50: 4.78 ± 0.6 µM
[3]
  IC50 at 72 h: > 50 µM
In vitro
  CC50 at 48 h: 25.1 ± 1.8 µM
A549
  IC50: > 50 µM
DU145
  IC50: > 50 µM

## C=C1CC[C@H]2C(c3cc(Br)ccc3O)=NO[C@]2(C)CC[C@@H]2[C@@H]1CC2(C)C [Compound 18b, 4-bromo-2-((3aS,6aS,8aR,10aR)-8,8,10a-trimethyl-6-methylene-3a,5,6,6a,7,8,8a,9,10,10a-decahydro-4H-cyclobuta [5,6]cyclonona [1,2-d]isoxazol-3-yl)phenol]
[2]
  IC50 at 72 h: 50 to 100 µM
VA-13
  IC50: 50 to 100 µM
[3]
  IC50 at 72 h: 50 to 100 µM
HEK293
  IC50: 50 to 100 µM
A549
  IC50: > 50 µM
DU145
  IC50: > 50 µM

## C/C1=C\CC[C@@]2(CC(Br)=NO2)[C@H]2CC(C)(C)[C@@H]2CC1 [Compound 19a, (1S,2R,9R,E)-3′-Bromo-6,10,10-trimethyl-4′H-spiro[bicyclo [7.2.0]undecane-2,5′-isoxazol]-5-ene]
[2]
  IC50 at 72 h: > 50 µM
[1]; [5]
  IC50: > 12.3 µM
[3]
  IC50 at 72 h: > 50 µM
In vitro
  CC50 at 48 h: 19.6 ± 1.1 µM
A549
  IC50: > 50 µM
DU145
  IC50: > 50 µM

## C=C1CC[C@H]2C(Br)=NO[C@]2(C)CC[C@@H]2[C@@H]1CC2(C)C [Compound 19b, (3aR,6aS,8aR,10aR)-3-bromo-8,8,10a-trimethyl-6-methylene-3a,5,6,6a,7,8,8a,9,10,10a-decahydro-4H-cyclobuta [5,6]cyclonona [1,2-d]isoxazole]
[1]; [5]
  IC50: > 33.7 µM
In vitro
  CC50 at 48 h: 44.2 ± 3.6 µM

## C=C1CC[C@@H]2C(C)=NN(c3ccccc3)[C@@]2(C)CC[C@@H]2[C@@H]1CC2(C)C [Compound 21b, (3aS,6aS,8aR,10aS)-3,8,8,10a-tetramethyl-6-methylene-1-phenyl-1,3a,4,5,6,6a,7,8,8a,9,10,10a-dodecahydrocyclobuta [6,7]cyclonona [1,2-c]pyrazole]
[2]
  IC50 at 72 h: > 50 µM
[1]; [5]
  IC50: > 297 µM
[3]
  IC50 at 72 h: > 50 µM
In vitro
  CC50 at 48 h: 375 ± 15.6 µM
A549
  IC50: > 50 µM
DU145
  IC50: > 50 µM

## C/C1=C\CC[C@@]2(CC(c3ccccc3)=NN2c2ccccc2)[C@H]2CC(C)(C)[C@@H]2CC1 [Compound 22a, (1S,2R,9R,E)-6,10,10-Trimethyl-2′,5′-diphenyl-2′,4′-dihydrospiro[bicyclo [7.2.0]undecane-2,3′-pyrazol]-5-ene]
[2]
  IC50 at 72 h: 50 to 100 µM
VA-13
  IC50: 50 to 100 µM
[1]; [5]
  IC50: 72.7 ± 9.2 µM
[3]
  IC50 at 72 h: 50 to 100 µM
HEK293
  IC50: 50 to 100 µM
In vitro
  CC50 at 48 h: 170 ± 12.1 µM
A549
  IC50: > 50 µM
DU145
  IC50: > 50 µM

## C=C1CC[C@H]2C(c3ccccc3)=NN(c3ccccc3)[C@]2(C)CC[C@@H]2[C@@H]1CC2(C)C [Compound 22b, (3aR,6aS,8aR,10aR)-8,8,10a-trimethyl-6-methylene-1,3-diphenyl-1,3a,4,5,6,6a,7,8,8a,9,10,10a-dodecahydrocyclobuta [6,7]cyclonona [1,2-c]pyrazole]
[2]
  IC50 at 72 h: < 50 µM
VA-13
  IC50: 50 to 100 µM
[1]; [5]
  IC50: > 9.28 µM
[3]
  IC50 at 72 h: < 50 µM
HEK293
  IC50: 50 to 100 µM
In vitro
  CC50 at 48 h: 25.1 ± 1.6 µM
A549
  IC50: > 50 µM
DU145
  IC50: > 50 µM

## C=C1CC[C@H]2C(c3c(OC)cccc3OC)=NN(c3c(Cl)cc(Cl)cc3Cl)[C@]2(C)CC[C@@H]2[C@@H]1CC2(C)C [Compound 23b, (3aR,6aS,8aR,10aR)-3-(2,6-dimethoxyphenyl)-8,8,10a-trimethyl-6-methylene-1-(2,4,6-trichlorophenyl)-1,3a,4,5,6,6a,7,8,8a,9,10,10a-dodecahydrocyclobuta [6,7]cyclonona [1,2-c]pyrazole]
[2]
  IC50 at 72 h: > 50 µM
[1]; [5]
  IC50: 178 ± 20.1 µM
[3]
  IC50 at 72 h: > 50 µM
In vitro
  CC50 at 48 h: > 535 µM
A549
  IC50: > 50 µM
DU145
  IC50: > 50 µM

## COc1ccc(C2=NO[C@]3(CC[C@@H]4C(c5ccc(OC)cc5)=NO[C@@]4(C)CC[C@@H]4[C@@H]3CC4(C)C)C2)cc1 [Compound 26, (3aR,6R,6aS,8aR,10aS)-3,3′-Bis(4-methoxyphenyl)-8,8,10a-trimethyl-3a,4,5,6a,7,8,8a,9,10,10a-decahydro-4′H-spiro[cyclobuta [5,6]cyclonona [1,2-d]isoxazole-6,5′-isoxazole]]
[2]
  IC50 at 72 h: > 50 µM
[1]; [5]
  IC50: > 652 µM
[3]
  IC50 at 72 h: > 50 µM
In vitro
  CC50 at 48 h: > 652 µM
A549
  IC50: > 50 µM
DU145
  IC50: > 50 µM

## CC1(C)C[C@H]2[C@H]1CC[C@@]1(C)ON=C(Br)[C@@H]1CC[C@@]21CC(Br)=NO1 [Compound 28, (3aR,6R,6aS,8aR,10aR)-3,3′-Dibromo-8,8,10a-trimethyl-3a,4,5,6a,7,8,8a,9,10,10a-decahydro-4′H-spiro[cyclobuta [5,6]cyclonona [1,2-d]isoxazole-6,5′-isoxazole]]
[2]
  IC50 at 72 h: 50 to 100 µM
VA-13
  IC50: 50 to 100 µM
[1]; [5]
  IC50: > 8.7 µM
[3]
  IC50 at 72 h: 50 to 100 µM
HEK293
  IC50: 50 to 100 µM
In vitro
  CC50 at 48 h: 13.8 ± 1.2 µM
A549
  IC50: > 50 µM
DU145
  IC50: > 50 µM

## CC1(C)C[C@H]2[C@H]1CC[C@]1(C)[C@@H](CC[C@@]23CC(c2ccccc2)=NN3c2ccccc2)C(c2ccccc2)=NN1c1ccccc1 [Compound 29, (3aR,6R,6aS,8aR,10aR)-8,8,10a-trimethyl-1,2′,3,5′-tetraphenyl-2′,3a,4,4′,5,6a,7,8,8a,9,10,10a-Dodecahydro-1H-spiro[cyclobuta [6,7]cyclonona [1,2-c]pyrazole-6,3′-pyrazole]]
[2]
  IC50 at 72 h: > 50 µM
[1]; [5]
  IC50: 102 ± 12.6 µM
[3]
  IC50 at 72 h: > 50 µM
In vitro
  CC50 at 48 h: > 506 µM
A549
  IC50: > 50 µM
DU145
  IC50: > 50 µM

## COc1cccc(OC)c1C1=NN(c2c(Cl)cc(Cl)cc2Cl)[C@]2(CC[C@H]3C(c4c(OC)cccc4OC)=NN(c4c(Cl)cc(Cl)cc4Cl)[C@]3(C)CC[C@@H]3[C@@H]2CC3(C)C)C1 [Compound 30, (3aR,6R,6aS,8aR,10aR)-3,5′-Bis(2,6-dimethoxyphenyl)-8,8,10a-trimethyl-1,2′-bis(2,4,6-trichlorophenyl)-2′,3a,4,4′,5,6a,7,8,8a,9,10,10a-dodecahydro-1H-spiro[cyclobuta [6,7]cyclonona [1,2-c]pyrazole-6,3′-pyrazole]]
[2]
  IC50 at 72 h: > 50 µM
[1]; [5]
  IC50: 71 ± 8.8 µM
[3]
  IC50 at 72 h: > 50 µM
In vitro
  CC50 at 48 h: > 330 µM
A549
  IC50: > 50 µM
DU145
  IC50: > 50 µM

## CC(N)C1C[C@@H]2CC[C@H]1C2 (stereo partly shown) [Deitiforin, reference compound]
MDCK cells
  CC50: 1270 ± 82 µM

## NC(=O)c1ncn([C@@H]2O[C@H](CO)[C@@H](O)[C@H]2O)n1 [Ribavirin, reference compound]
[1]; [5]
  IC50: 25 µM
MDCK cells
  CC50: > 2000 µM

## CC(N)C12CC3CC(CC(C3)C1)C2 (stereo not shown) [Rimantadine, reference compound]
[1]; H1N1, MDCK, 48 h
  IC50: 67 ± 4.9 µM
MDCK cells
  CC50: 335 ± 27 µM
